In patent publication US11673890B2, “N1-pyrazolospiroketone acetyl-CoA carboxylase inhibitors” (Pfizer Inc., priority 2010, dated 2023):
Where two headings read alike, the source gives them in different places.

Experiments:
[1] = target: T1, recombinant human ACC1 (rhACC1) (Homo sapiens, UniProt Q13085, DEL44-44); test: recombinant hACC1 Transcreener assay (ADP detection FP); format: biochemical
T1 construct: infected with recombinant baculovirus containing full length human ACC1 cDNA; made in house; host or cells: SF9 insect cells (baculovirus)
Protocol: For example direct inhibition of ACC activity, for the compound of Formula (1) was determined using preparations of recombinant human ACC1 (rhACC1) and recombinant human ACC2 (rhACC2).
[1] Preparation of rhACC1. Two liters of SF9 cells, infected with recombinant baculovirus containing full length human ACC1 cDNA, were suspended in ice-cold lysis buffer (25 mM Tris, pH 7.5; 150 mM NaCl; 10% glycerol; 5 mM imidazole (EMD Bioscience; Gibbstown, N.J.); 2 mM TCEP (BioVectra; Charlottetown, Canada); Benzonase nuclease (10000 U/100 g cell paste; Novagen; Madison, Wis.); EDTA-free protease inhibitor cocktail (1 tab/50 mL; Roche Diagnostics; Mannheim, Germany). Cells were lysed by 3 cycles of freeze-thaw and centrifuged at 40,000×g for 40 minutes (4° C.). Supernatant was directly loaded onto a HisTrap FF crude column (GE Healthcare; Piscataway, N.J.) and eluted with an imidazole gradient up to 0.5 M over 20 column volumes (CV). ACC1-containing fractions were pooled and diluted 1:5 with 25 mM Tris, pH 7.5, 2 mM TCEP, 10% glycerol and direct loaded onto a CaptoQ (GE Healthcare) column and eluted with an NaCl gradient up to 1 M over 20 CV's. Phosphate groups were removed from purified ACC1 by incubation with lambda phosphatase (100 U/10 μM target protein; New England Biolabs; Beverly, Mass.) for 14 hours at 4° C.; okadaic acid was added (1 μM final concentration; Roche Diagnostics) to inhibit the phosphatase. Purified ACC1 was exchanged into 25 mM Tris, pH 7.5, 2 mM TCEP, 10% glycerol, 0.5 M NaCl by 6 hour dialysis at 4° C. Aliquots were prepared and frozen at −80° C.
[2] […] The final conditions for the assay were 50 mM HEPES, pH 7.2, 10 mM MgCl2, 7.5 mM tripotassium citrate, 2 mM DTT, 0.1 mg/mL BSA, 30 μM acetyl-CoA, 50 μM ATP, and 10 mM KHCO3. Typically, a 10 μl reaction was run for 120 min at 25° C., and 10 μl of Transcreener stop and detect buffer was added and the combination incubated at room temp for an additional 1 hour.
All of the examples in both assays were run with a minimum of n=3.

[2] = target: T2, recombinant human ACC2 (rhACC2) (Homo sapiens, UniProt O00763, V2141I); test: recombinant hACC2 Transcreener assay (ADP detection FP); format: biochemical; conditions: 50 μM ATP, minimum of n=3
T2 construct: a full length Cytomax clone of ACC2 was purchased from Cambridge Bioscience Limited; made in house; host or cells: CHO cells (tetracycline-inducible, pcDNA5 FRT TO-TOPO)
T2 sequence (O00763 whole entry V2141I): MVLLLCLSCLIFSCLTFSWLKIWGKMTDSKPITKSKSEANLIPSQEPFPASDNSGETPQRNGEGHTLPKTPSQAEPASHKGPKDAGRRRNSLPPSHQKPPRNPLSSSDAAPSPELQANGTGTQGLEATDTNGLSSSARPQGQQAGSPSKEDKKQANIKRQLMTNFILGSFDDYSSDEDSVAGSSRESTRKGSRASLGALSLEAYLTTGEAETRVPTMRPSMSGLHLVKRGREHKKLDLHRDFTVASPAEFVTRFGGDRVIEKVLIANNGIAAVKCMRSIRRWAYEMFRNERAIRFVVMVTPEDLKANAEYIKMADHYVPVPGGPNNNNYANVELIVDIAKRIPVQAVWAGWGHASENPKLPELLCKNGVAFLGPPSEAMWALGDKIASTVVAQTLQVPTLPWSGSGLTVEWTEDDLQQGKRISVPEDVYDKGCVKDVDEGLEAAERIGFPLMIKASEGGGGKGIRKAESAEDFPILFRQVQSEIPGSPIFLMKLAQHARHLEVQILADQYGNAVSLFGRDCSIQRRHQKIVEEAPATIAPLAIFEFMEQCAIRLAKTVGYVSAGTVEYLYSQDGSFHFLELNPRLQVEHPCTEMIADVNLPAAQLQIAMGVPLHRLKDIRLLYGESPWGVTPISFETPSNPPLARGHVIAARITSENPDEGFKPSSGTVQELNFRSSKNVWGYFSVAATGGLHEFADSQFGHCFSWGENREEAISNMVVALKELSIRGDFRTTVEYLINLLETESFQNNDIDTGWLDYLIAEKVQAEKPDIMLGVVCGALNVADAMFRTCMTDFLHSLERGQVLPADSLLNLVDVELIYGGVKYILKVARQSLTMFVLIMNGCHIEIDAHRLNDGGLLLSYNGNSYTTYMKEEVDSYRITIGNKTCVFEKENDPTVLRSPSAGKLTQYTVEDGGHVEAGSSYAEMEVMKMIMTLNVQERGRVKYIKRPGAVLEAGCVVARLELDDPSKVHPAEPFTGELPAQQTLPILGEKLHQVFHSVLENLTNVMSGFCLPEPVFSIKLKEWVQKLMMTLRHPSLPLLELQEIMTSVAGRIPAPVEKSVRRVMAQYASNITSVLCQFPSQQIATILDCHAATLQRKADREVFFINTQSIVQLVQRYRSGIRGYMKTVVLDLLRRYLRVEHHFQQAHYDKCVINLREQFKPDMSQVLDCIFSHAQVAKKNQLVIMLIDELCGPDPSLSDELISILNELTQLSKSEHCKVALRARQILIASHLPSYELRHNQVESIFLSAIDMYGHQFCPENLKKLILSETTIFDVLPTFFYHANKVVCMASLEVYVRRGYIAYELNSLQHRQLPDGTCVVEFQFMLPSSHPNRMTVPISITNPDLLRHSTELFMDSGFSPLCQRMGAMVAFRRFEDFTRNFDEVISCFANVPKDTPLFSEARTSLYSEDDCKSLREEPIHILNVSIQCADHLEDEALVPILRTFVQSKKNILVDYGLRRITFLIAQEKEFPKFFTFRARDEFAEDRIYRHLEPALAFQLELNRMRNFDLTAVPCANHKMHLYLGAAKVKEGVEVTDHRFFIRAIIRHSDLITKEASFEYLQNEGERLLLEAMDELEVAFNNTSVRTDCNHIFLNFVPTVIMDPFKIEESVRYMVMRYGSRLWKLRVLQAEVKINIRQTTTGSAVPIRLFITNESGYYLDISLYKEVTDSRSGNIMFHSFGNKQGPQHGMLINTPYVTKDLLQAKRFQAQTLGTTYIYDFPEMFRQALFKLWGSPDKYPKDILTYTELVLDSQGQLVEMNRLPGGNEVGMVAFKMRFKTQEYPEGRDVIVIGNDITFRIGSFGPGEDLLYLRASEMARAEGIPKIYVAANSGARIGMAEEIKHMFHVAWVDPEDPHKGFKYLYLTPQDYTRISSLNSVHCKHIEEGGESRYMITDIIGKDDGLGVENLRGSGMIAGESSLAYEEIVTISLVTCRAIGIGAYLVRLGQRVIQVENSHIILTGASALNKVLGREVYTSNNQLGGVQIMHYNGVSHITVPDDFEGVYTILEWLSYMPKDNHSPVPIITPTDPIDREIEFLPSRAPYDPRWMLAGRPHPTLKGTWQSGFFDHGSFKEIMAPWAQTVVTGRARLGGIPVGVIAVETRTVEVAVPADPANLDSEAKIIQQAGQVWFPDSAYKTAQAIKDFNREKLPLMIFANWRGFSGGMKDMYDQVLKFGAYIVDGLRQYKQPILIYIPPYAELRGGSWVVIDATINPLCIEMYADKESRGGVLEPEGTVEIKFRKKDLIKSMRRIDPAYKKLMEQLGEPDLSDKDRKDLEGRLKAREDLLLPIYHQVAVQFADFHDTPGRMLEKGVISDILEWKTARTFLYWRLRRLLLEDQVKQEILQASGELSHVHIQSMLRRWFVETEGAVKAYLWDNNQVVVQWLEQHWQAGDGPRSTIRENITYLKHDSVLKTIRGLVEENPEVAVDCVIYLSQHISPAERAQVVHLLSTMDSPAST
Protocol: For example direct inhibition of ACC activity, for the compound of Formula (1) was determined using preparations of recombinant human ACC1 (rhACC1) and recombinant human ACC2 (rhACC2). Representative sequences of the recombinant human ACC1 and ACC2 that can be used in the assay are provided in FIG. 1 (SEQ ID NO. 1) and FIG. 2 (SEQ. ID NO. 2), respectively.
[3] Preparation of rhACC2. Human ACC2 inhibition was measured using purified recombinant human ACC2 (hrACC2). Briefly, a full length Cytomax clone of ACC2 was purchased from Cambridge Bioscience Limited and was sequenced and subcloned into PCDNA5 FRT TO-TOPO (Invitrogen, Carlsbad, Calif.). The ACC2 was expressed in CHO cells by tetracycline induction and harvested in 5 liters of DMEM/F12 with glutamine, biotin, hygromycin and blasticidin with 1 μg/mL tetracycline (Invitrogen, Carlsbad, Calif.). The conditioned medium containing ACC2 was then applied to a Softlink Soft Release Avidin column (Promega, Madison, Wis.) and eluted with 5 mM biotin. 4 mgs of ACC2 were eluted at a concentration of 0.05 mg/mL (determined by A280) with an estimated purity of 95% ([…]). The purified ACC2 was dialyzed in 50 mM Tris, 200 mM NaCl, 4 mM DTT, 2 mM EDTA, and 5% glycerol. The pooled protein was frozen and stored at −80° C., with no loss of activity upon thawing. For measurement of ACC2 activity and assessment of ACC2 inhibition, test compounds were dissolved in DMSO and added to the rhACC2 enzyme as a 5× stock with a final DMSO concentration of 1%.
[4] Measurement of human ACC2 inhibition. hACC2 was assayed in a Costar #3676 (Costar, Cambridge, Mass.) 384-well plate using the Transcreener ADP detection FP assay kit (Bellbrook Labs, Madison, Wis.) using the manufacturer's recommended conditions for a 50 uM ATP reaction. The final conditions for the assay were 50 mM HEPES, pH 7.2, 5 mM MgCl2, 5 mM tripotassium citrate, 2 mM DTT, 0.1 mg/mL BSA, 30 μM acetyl-CoA, 50 μM ATP, and 8 mM KHCO3. Typically, a 10 μl reaction was run for 50 min at 25° C., and 10 μl of Transcreener stop and detect buffer was added and the combination incubated at room temp for an additional 1 hour. The data was acquired on an Envision Fluorescence reader (Perkinelmer) using a 620 excitation Cy5 FP general dual mirror, 620 excitation Cy5 FP filter, 688 emission (S) and a 688 (P) emission filter.
The results using the recombinant hACC1 and recombinant hACC2 Transcreener assays described above are summarized in the table below for the Compounds of Formula (I) exemplified in the Examples above. All of the examples in both assays were run with a minimum of n=3.

[3] = recombinant hACC1 Transcreener assay, 50 μM ATP, minimum of n=3, read-out: hACC1

IC50 [1, 3] [nM] | IC50 [2] [nM] | Compound | IC50 [1] [nM]
59.6 | 84.1 | COc1cc(C(=O)N2CCC3(CC2)CC(=O)c2c(cnn2C(C)C)C3)cc(-c2cccc(C(=O)O)c2)n1 [Example 2, 3-(4-(1-Isopropyl-7-oxo-1,4,6,7-tetrahydrospiro[indazole-5,4′-piperidine]-1′-ylcarbonyl)-6-methoxypyridin-2-yl)benzoic acid] | –
55.8 | 42.6 | CC(C)n1ncc2c1C(=O)CC1(CCN(C(=O)c3cc4c(-c5ccc(C(=O)O)cc5)ncnc4[nH]3)CC1)C2 [Example 34, 4-{6-[(1-isopropyl-7-oxo-1,4,6,7-tetrahydro-1′H-spiro[indazole-5,4′-piperidin]-1′-yl)carbonyl]-7H-pyrrolo[2,3-d]pyrimidin-4-yl}benzoic acid] | –
1370 | 420 | CC(C)Nc1nc(-c2cccc(C(=O)O)c2)ccc1C(=O)N1CCC2(CC1)CC(=O)c1c(cnn1C(C)C)C2 [Example 23, 3-{6-(isopropylamino)-5-[(1-isopropyl-7-oxo-1,4,6,7-tetrahydro-1′H-spiro[indazole-5,4′-piperidin]-1′-yl)carbonyl]pyridin-2-yl}benzoic acid] | –
11.6 | 15.7 | CC(C)n1ncc2c1C(=O)CC1(CCN(C(=O)c3nc4cc(-c5ccc(C(=O)O)cc5)ccc4[nH]3)CC1)C2 [Example 46, 4-{2-[(1-isopropyl-7-oxo-1,4,6,7-tetrahydro-1′H-spiro[indazole-5,4′-piperidin]-1′-yl)carbonyl]-1H-benzimidazol-5-yl}benzoic acid] | –
627 | 507 | CC(C)(C)n1ncc2c1C(=O)CC1(CCN(C(=O)c3cc(C(=O)O)cc(-c4ncco4)c3)CC1)C2 [Example 21, 3-[(1-tert-butyl-7-oxo-1,4,6,7-tetrahydro-1′H-spiro[indazole-5,4′-piperidin]-1′-yl)carbonyl]-5-(1,3-oxazol-2-yl)benzoic acid] | –
4.5 | 14.6 | CC(C)(C)n1ncc2c1C(=O)CC1(CCN(C(=O)c3cc4c(-c5ccc(C(=O)O)cc5)cccc4[nH]3)CC1)C2 [Example 18, 4-{2-[(1-tert-butyl-7-oxo-1,4,6,7-tetrahydro-1′H-spiro[indazole-5,4′-piperidin]-1′-yl)carbonyl]-1H-indol-4-yl}benzoic acid] | –
30.1 | 35.5 | COc1cc(C(=O)N2CCC3(CC2)CC(=O)c2c(cnn2C(C)(C)C)C3)cc(-c2ccc(C(=O)O)cc2)n1 [Example 10, 4-{4-[(1-tert-butyl-7-oxo-1,4,6,7-tetrahydro-1′H-spiro[indazole-5,4′-piperidin]-1′-yl)carbonyl]-6-methoxypyridin-2-yl}benzoic acid] | –
837 | 487 | CCNc1nc(-c2cccc(C(=O)O)c2)ccc1C(=O)N1CCC2(CC1)CC(=O)c1c(cnn1C(C)(C)C)C2 [Example 19, 3-{5-[(1-tert-butyl-7-oxo-1,4,6,7-tetrahydro-1′H-spiro[indazole-5,4′-piperidin]-1′-yl)carbonyl]-6-(ethylamino)pyridin-2-yl}benzoic acid] | –
260 | 115 | CC(C)(C)n1ncc2c1C(=O)CC1(CCN(C(=O)c3ccc(-c4cccc(C(=O)O)c4)cc3)CC1)C2 [Example 6, 4′-[(1-tert-butyl-7-oxo-1,4,6,7-tetrahydro-1′H-spiro[indazole-5,4′-piperidin]-1′-yl)carbonyl]biphenyl-3-carboxylicacid] | –
34.4 | 35.9 | CNc1ncc(-c2ccc(C(=O)O)cc2)cc1C(=O)N1CCC2(CC1)CC(=O)c1c(cnn1C(C)C)C2 [Example 44, 4-{5-[(1-isopropyl-7-oxo-1,4,6,7-tetrahydro-1′H-spiro[indazole-5,4′-piperidin]-1′-yl)carbonyl]-6-(methylamino)pyridin-3-yl}benzoic acid] | –
2910 | 1140 | CC(C)n1ncc2c1C(=O)CC1(CCN(C(=O)c3cc(-c4ccc(C(=O)O)cc4)[nH]c(=O)c3)CC1)C2 [Example 27, 4-{4-[(1-isopropyl-7-oxo-1,4,6,7-tetrahydro-1′H-spiro[indazole-5,4′-piperidin]-1′-yl)carbonyl]-6-oxo-1,6-dihydropyridin-2-yl}benzoic acid] | –
33.5 | 19.9 | CC(C)n1ncc2c1C(=O)CC1(CCN(C(=O)c3cc4c(-c5ccc(C(=O)O)cc5)cncc4[nH]3)CC1)C2 [Example 38, 4-{2-[(1-isopropyl-7-oxo-1,4,6,7-tetrahydro-1′H-spiro[indazole-5,4′-piperidin]-1′-yl)carbonyl]-1H-pyrrolo[2,3-c]pyridin-4-yl}benzoic acid] | –
1010 | 685 | CC(C)n1ncc2c1C(=O)CC1(CCN(C(=O)c3cc(C(=O)O)cc(-c4ncco4)c3)CC1)C2 [Example 22, 3-[(1-isopropyl-7-oxo-1,4,6,7-tetrahydro-1′H-spiro[indazole-5,4′-piperidin]-1′-yl)carbonyl]-5-(1,3-oxazol-2-yl)benzoic acid] | –
98.4 | 133 | CNc1ncc(-c2cccc(C(=O)O)c2)cc1C(=O)N1CCC2(CC1)CC(=O)c1c(cnn1C(C)C)C2 [Example 43, 3-{5-[(1-isopropyl-7-oxo-1,4,6,7-tetrahydro-1′H-spiro[indazole-5,4′-piperidin]-1′-yl)carbonyl]-6-(methylamino)pyridin-3-yl}benzoic acid] | –
15.6 | 21.6 | CC(C)(C)n1ncc2c1C(=O)CC1(CCN(C(=O)c3cc4c(-c5cccc(C(=O)O)c5)cccc4[nH]3)CC1)C2 [Example 17, 3-{2-[(1-tert-butyl-7-oxo-1,4,6,7-tetrahydro-1′H-spiro[indazole-5,4′-piperidin]-1′-yl)carbonyl]-1H-indol-4-yl}benzoic acid] | –

Compound | IC50 [1, 3] [nM] | IC50 [2] [nM] | IC50 [1] [nM]
COc1cc(C(=O)N2CCC3(CC2)CC(=O)c2c(cnn2C(C)C)C3)cc(-c2ccc(C(=O)O)cc2)n1 [Example 9, 4-{4-[(1-isopropyl-7-oxo-1,4,6,7-tetrahydro-1′H-spiro[indazole-5,4′-piperidin]-1′-yl)carbonyl]-6-methoxypyridin-2-yl}benzoic acid] | – | 29.7 | 30.9
4-{5-[(1-tert-butyl-7-oxo-1,4,6,7-tetrahydro-1′H-spiro[indazole-5,4′-piperidin]-1′-yl)carbonyl]-6-(methylamino)pyridin-2-yl}benzoic acid [Example 12] | 152 | 94.5 | –
